Key:
[1] = biological target: Beta-2 adrenergic receptor (Homo sapiens, UniProt P07550)
B2 bradykinin receptor = biological target: T1, B2 bradykinin receptor (Homo sapiens, UniProt P30411)
T1 sequence (P30411 whole entry): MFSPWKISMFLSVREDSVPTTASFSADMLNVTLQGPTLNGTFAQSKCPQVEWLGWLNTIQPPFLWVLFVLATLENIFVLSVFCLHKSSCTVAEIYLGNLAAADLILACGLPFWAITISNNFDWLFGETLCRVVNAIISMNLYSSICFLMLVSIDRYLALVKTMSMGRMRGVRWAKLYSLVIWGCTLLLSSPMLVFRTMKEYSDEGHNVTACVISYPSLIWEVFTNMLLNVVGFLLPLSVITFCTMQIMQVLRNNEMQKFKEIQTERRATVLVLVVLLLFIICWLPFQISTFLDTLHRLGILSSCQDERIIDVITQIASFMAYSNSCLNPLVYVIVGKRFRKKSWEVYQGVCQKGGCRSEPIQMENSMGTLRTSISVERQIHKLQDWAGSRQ

[2] = biological target: T2, Muscarinic acetylcholine receptor M2 (Homo sapiens, UniProt P08172); assay type: functional, cell-based
T2 sequence (P08172 whole entry): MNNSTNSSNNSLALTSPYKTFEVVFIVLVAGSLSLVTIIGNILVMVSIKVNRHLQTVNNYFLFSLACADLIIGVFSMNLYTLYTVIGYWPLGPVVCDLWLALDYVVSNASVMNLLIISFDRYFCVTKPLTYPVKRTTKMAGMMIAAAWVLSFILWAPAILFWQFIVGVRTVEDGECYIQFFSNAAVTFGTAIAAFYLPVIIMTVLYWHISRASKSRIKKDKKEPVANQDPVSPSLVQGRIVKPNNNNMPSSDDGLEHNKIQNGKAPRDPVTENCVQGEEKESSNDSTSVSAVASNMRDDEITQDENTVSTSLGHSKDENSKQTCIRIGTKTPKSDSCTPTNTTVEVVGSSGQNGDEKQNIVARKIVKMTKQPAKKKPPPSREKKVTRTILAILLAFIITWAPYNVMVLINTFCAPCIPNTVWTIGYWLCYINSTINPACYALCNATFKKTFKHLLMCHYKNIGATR

[3] = biological target: Glutamate receptor ionotropic, NMDA 1 (Rattus norvegicus, UniProt P35439)
[4] = biological target: 5-hydroxytryptamine receptor 2B (Homo sapiens, UniProt P41595); assay type: functional, cell-based
Sequence of 5-hydroxytryptamine receptor 2B (P41595 whole entry): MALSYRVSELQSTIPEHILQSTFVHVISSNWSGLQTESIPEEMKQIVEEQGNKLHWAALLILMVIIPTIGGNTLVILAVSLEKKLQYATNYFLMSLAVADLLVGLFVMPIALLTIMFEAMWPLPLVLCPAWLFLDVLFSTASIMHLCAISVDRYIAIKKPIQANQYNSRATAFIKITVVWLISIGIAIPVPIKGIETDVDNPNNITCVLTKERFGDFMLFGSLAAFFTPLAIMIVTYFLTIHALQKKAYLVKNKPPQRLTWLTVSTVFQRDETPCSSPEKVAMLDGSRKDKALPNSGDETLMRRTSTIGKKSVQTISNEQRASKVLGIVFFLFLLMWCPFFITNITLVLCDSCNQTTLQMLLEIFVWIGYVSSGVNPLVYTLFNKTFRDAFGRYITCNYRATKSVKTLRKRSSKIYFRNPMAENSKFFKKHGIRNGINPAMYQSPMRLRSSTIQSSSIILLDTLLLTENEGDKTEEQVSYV

[5] = biological target: T3, 5-hydroxytryptamine receptor 2C (Homo sapiens, UniProt P28335)
T3 sequence (P28335 whole entry): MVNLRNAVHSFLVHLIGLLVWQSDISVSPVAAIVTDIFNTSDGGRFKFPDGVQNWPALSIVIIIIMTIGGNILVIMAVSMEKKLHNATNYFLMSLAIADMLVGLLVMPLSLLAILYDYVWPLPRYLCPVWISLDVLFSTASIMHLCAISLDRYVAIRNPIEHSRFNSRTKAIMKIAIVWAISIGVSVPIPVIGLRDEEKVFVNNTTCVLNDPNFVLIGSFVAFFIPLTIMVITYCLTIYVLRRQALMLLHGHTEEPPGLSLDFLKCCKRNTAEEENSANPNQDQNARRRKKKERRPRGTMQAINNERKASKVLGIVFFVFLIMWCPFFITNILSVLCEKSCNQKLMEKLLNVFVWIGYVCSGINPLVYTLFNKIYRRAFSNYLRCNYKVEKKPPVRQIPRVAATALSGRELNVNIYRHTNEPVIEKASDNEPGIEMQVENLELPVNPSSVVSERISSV

Glucocorticoid receptor = biological target: T4, Glucocorticoid receptor (Homo sapiens, UniProt P04150)
T4 sequence (P04150 whole entry): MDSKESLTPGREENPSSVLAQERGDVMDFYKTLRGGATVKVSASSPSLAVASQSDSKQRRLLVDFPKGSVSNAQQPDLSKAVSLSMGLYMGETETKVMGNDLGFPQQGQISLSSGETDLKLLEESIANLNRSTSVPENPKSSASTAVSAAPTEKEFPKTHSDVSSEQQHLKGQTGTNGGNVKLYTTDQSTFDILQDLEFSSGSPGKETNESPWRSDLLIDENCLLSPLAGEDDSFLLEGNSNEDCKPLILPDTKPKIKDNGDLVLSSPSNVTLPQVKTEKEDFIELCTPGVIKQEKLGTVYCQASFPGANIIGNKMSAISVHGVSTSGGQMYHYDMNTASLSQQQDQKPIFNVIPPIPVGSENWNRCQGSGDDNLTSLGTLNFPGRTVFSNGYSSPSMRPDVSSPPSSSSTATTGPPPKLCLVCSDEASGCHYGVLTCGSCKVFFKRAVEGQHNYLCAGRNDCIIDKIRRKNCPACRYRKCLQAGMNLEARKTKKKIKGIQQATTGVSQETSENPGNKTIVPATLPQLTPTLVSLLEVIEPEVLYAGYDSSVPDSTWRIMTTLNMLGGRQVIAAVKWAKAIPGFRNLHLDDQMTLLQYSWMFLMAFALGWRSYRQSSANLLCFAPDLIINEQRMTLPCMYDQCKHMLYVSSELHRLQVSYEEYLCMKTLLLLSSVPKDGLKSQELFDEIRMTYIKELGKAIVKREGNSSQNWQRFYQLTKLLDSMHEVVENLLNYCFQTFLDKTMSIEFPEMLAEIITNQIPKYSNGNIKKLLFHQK

[6] = biological target: Kappa-type opioid receptor (Homo sapiens, UniProt P41145)
Sequence of Kappa-type opioid receptor (P41145 whole entry): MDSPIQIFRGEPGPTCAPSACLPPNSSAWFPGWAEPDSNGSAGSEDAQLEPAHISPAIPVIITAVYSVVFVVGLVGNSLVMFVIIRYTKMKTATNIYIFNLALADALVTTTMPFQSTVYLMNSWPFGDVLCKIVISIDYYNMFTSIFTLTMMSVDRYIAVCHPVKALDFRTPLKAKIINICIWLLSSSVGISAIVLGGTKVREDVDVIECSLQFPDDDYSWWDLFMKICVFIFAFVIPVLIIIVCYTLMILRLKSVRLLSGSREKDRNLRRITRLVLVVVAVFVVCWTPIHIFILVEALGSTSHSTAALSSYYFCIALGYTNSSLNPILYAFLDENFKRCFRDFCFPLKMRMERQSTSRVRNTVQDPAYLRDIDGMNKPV

Thromboxane A2 receptor = biological target: T5, Thromboxane A2 receptor (Homo sapiens, UniProt P21731)
T5 sequence (P21731 whole entry): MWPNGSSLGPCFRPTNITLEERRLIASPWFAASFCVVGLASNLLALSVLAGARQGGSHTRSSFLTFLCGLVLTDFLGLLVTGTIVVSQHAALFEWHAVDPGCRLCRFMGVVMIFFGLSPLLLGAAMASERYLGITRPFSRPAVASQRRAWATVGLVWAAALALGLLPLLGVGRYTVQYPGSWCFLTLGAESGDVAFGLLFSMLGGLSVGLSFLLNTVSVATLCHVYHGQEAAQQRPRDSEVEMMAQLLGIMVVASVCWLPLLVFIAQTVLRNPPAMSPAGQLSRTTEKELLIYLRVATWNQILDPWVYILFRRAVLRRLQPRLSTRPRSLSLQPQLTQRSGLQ

[7] = biological target: Sodium-dependent dopamine transporter (Homo sapiens, UniProt Q01959)
Sequence of Sodium-dependent dopamine transporter (Q01959 whole entry): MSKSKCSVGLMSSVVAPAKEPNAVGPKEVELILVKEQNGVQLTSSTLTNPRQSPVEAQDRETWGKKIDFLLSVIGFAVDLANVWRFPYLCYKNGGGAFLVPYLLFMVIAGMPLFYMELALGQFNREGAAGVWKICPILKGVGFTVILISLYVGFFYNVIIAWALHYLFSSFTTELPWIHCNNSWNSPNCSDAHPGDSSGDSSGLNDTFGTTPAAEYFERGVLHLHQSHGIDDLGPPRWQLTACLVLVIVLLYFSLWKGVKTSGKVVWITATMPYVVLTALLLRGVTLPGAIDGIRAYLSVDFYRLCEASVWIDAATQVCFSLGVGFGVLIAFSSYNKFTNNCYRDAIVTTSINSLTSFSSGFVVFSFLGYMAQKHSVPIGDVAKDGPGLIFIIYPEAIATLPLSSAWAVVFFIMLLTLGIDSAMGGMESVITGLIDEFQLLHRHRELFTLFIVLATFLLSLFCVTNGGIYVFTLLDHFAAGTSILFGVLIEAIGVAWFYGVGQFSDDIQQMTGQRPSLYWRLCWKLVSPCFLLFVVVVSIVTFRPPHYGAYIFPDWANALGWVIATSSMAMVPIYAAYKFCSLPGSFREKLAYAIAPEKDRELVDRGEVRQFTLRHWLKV

[8] = biological target: cGMP-inhibited 3',5'-cyclic phosphodiesterase 3A (Homo sapiens, UniProt Q14432); assay type: functional
Sequence of cGMP-inhibited 3',5'-cyclic phosphodiesterase 3A (Q14432 whole entry): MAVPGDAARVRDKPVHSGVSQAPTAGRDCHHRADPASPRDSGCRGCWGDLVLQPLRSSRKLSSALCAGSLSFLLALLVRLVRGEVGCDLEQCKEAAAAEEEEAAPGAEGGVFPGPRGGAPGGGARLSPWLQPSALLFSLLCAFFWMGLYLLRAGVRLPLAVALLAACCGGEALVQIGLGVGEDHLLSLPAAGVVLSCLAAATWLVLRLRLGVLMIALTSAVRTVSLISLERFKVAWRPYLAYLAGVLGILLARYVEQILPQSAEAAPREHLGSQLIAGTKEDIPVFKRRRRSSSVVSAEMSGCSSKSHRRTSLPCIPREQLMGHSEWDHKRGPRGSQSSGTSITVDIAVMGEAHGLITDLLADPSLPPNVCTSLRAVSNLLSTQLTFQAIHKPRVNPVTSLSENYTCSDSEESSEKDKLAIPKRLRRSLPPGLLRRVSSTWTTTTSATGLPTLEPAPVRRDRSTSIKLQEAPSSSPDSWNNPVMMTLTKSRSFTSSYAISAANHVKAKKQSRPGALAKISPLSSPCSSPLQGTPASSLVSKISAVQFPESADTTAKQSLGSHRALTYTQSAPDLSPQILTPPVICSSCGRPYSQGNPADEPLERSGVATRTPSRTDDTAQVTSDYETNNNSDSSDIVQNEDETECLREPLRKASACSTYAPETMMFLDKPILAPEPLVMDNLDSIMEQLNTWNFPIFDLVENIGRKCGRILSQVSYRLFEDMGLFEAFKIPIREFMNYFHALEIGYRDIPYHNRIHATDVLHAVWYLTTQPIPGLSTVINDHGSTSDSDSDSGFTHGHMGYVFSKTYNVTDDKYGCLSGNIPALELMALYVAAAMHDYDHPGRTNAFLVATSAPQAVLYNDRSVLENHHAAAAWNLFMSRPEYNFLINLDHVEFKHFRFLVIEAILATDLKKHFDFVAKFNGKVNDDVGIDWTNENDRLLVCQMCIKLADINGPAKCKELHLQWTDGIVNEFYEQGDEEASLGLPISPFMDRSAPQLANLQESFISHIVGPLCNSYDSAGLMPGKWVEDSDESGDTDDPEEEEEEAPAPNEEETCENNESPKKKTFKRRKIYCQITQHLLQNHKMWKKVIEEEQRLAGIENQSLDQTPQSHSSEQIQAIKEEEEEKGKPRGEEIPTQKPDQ

Histamine H3 receptor = Histamine H3 receptor (Homo sapiens, UniProt Q9Y5N1)
Sequence of Histamine H3 receptor (Q9Y5N1 whole entry): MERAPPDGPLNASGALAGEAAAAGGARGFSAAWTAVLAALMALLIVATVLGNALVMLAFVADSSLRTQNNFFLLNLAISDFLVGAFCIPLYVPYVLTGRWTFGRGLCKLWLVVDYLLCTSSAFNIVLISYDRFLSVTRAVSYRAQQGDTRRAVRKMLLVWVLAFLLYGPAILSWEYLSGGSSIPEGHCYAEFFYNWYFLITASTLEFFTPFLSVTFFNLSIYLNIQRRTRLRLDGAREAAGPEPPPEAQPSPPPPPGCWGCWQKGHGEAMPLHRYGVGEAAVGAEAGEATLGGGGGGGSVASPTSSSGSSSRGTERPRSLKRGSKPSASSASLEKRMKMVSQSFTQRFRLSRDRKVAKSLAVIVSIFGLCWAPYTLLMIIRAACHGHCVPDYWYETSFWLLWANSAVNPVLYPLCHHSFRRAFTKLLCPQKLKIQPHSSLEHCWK
Note: assay procedure not described here.

Sequence of Beta-2 adrenergic receptor (P07550 whole entry): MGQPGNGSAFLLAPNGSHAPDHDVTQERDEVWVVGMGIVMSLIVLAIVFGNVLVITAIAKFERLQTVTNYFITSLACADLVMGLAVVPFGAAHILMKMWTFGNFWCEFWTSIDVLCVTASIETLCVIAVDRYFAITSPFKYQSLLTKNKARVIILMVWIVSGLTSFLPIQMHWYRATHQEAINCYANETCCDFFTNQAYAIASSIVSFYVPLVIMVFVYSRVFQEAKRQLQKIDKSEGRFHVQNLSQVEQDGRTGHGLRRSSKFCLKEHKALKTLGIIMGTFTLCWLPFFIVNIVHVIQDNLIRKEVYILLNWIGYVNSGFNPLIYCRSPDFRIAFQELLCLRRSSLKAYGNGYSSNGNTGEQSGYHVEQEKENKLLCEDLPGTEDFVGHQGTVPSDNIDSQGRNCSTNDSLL

SMILES | AC50 [1] | AC50 (B2 bradykinin receptor) | AC50 [2] | AC50 [3] | AC50 [4] | AC50 [5] | AC50 (Glucocorticoid receptor) | AC50 [6] | AC50 (Thromboxane A2 receptor) | AC50 [7] | AC50 [8] | AC50 (Histamine H3 receptor)
CCOC(=O)O[C@]1(C(=O)OCCl)CC[C@H]2[C@@H]3CCC4=CC(=O)C=C[C@]4(C)[C@H]3[C@@H](O)C[C@@]21C [LOTEPREDNOL ETABONATE] | > 30 µM | > 30 µM | > 30 µM | > 30 µM | > 30 µM | > 30 µM | 0.0056 µM | > 30 µM | > 30 µM | > 30 µM | > 30 µM | > 30 µM
CCN(CC)CCNC(=O)c1cc(S(C)(=O)=O)ccc1OC [TIAPRIDE] | > 30 µM | > 30 µM | > 30 µM | > 30 µM | > 30 µM | > 30 µM | > 30 µM | > 30 µM | > 30 µM | > 30 µM | > 30 µM | > 30 µM
CC(=O)O[C@H](CC(=O)[O-])C[N+](C)(C)C [ACETYLCARNITINE] | > 30 µM | > 30 µM | > 30 µM | > 30 µM | > 30 µM | > 30 µM | > 30 µM | > 30 µM | > 30 µM | > 30 µM | > 30 µM | > 30 µM
CCCCCCCCCCCCCCCCCCCCCC(=O)Nc1ccn([C@@H]2O[C@H](CO)[C@@H](O)[C@@H]2O)c(=O)n1 [ENOCITABINE] | > 30 µM | > 30 µM | > 30 µM | > 30 µM | > 30 µM |  | > 30 µM | > 30 µM | > 30 µM | > 30 µM | > 30 µM | > 30 µM
CCN(CC)CCN1C(=O)CN=C(c2ccccc2F)c2cc(Cl)ccc21 [FLURAZEPAM] | > 10 µM | > 30 µM | > 10 µM | > 10 µM | > 10 µM | > 30 µM | > 30 µM | 0.21 µM | > 30 µM | > 30 µM | > 30 µM | > 10 µM
O=C(O)c1ccccc1Nc1cc(Cl)ccc1C(=O)O [LOBENZARIT] | > 30 µM | > 30 µM | > 30 µM | 25 µM | > 30 µM | > 30 µM | > 30 µM | > 30 µM | > 30 µM | > 30 µM | > 30 µM | > 30 µM
CCC(COC(=O)c1cc(OC)c(OC)c(OC)c1)(c1ccccc1)N(C)C (stereo unspecified) [TRIMEBUTINE] | > 30 µM | > 30 µM | > 30 µM | > 30 µM | > 30 µM | > 30 µM | > 30 µM | 0.19 µM | > 30 µM | 27 µM | > 30 µM | > 30 µM
C=C1/C(=C\C=C2/CCC[C@]3(C)[C@@H]([C@H](C)/C=C/[C@@H](O)C4CC4)CC[C@@H]23)C[C@@H](O)C[C@@H]1O [CALCIPOTRIENE] | > 30 µM | > 30 µM | > 30 µM | > 30 µM | > 30 µM | > 30 µM | > 30 µM | > 30 µM | > 30 µM | > 30 µM | > 30 µM | > 30 µM
Nc1cc(-c2ccncc2)c[nH]c1=O [INAMRINONE] | > 10 µM | > 30 µM | > 10 µM | > 10 µM | > 10 µM | > 30 µM | > 30 µM | > 10 µM | > 30 µM | > 30 µM |  | > 10 µM
O=C(O)CCNC(=O)c1ccccc1 [BETAMIPRON] | > 30 µM | > 30 µM | > 30 µM | > 30 µM | > 30 µM | > 30 µM | > 30 µM | > 30 µM | > 30 µM | > 30 µM | > 30 µM | > 30 µM
C=C[C@@]1(C)CC(=O)[C@]2(O)[C@@]3(C)[C@@H](O)CCC(C)(C)[C@@H]3[C@H](O)[C@H](OC(C)=O)[C@@]2(C)O1 [COLFORSIN] | > 30 µM | > 30 µM | 1.9 µM | > 30 µM | > 30 µM | > 30 µM | > 30 µM | > 30 µM | > 30 µM | > 30 µM | > 30 µM | > 30 µM
COc1cc2c(cc1OC)C(CCc1ccc(Cl)cc1)N(C)CC2 (stereo unspecified) [METHOPHOLINE] | > 30 µM | > 30 µM | > 10 µM | > 10 µM | > 10 µM | > 30 µM | > 30 µM | 1.2 µM | > 30 µM | 28.7 µM | > 30 µM | > 30 µM
C/C(=C\C(=O)OCCCCCCCCC(=O)O)C[C@@H]1OC[C@H](C[C@@H]2O[C@H]2[C@@H](C)[C@H](C)O)[C@@H](O)[C@H]1O [MUPIROCIN] | > 10 µM | > 10 µM | > 10 µM | > 10 µM | > 10 µM | > 30 µM | > 10 µM | > 10 µM | > 10 µM | > 30 µM | > 30 µM | > 10 µM
COc1ccc(-c2noc(CC(=O)O)c2-c2ccc(OC)cc2)cc1 [MOFEZOLAC] | > 30 µM | > 30 µM | > 30 µM | > 30 µM | > 30 µM | > 30 µM | > 30 µM | > 30 µM | > 30 µM | > 30 µM | 13 µM | > 30 µM
